These results are taken from patent US20110152243A1, “NOVEL THIENOPYRROLE COMPOUNDS” (ABBOTT LABORATORIES, priority 2009, published 2011).

pIC50: −log10 of the molar value.

The target of this experiment is PKCθ (Homo sapiens, UniProt Q04759). In words: PKCθ enzyme data at 1 mM ATP. Type of experiment: biochemical.
Sequence of PKCθ (Q04759 whole entry): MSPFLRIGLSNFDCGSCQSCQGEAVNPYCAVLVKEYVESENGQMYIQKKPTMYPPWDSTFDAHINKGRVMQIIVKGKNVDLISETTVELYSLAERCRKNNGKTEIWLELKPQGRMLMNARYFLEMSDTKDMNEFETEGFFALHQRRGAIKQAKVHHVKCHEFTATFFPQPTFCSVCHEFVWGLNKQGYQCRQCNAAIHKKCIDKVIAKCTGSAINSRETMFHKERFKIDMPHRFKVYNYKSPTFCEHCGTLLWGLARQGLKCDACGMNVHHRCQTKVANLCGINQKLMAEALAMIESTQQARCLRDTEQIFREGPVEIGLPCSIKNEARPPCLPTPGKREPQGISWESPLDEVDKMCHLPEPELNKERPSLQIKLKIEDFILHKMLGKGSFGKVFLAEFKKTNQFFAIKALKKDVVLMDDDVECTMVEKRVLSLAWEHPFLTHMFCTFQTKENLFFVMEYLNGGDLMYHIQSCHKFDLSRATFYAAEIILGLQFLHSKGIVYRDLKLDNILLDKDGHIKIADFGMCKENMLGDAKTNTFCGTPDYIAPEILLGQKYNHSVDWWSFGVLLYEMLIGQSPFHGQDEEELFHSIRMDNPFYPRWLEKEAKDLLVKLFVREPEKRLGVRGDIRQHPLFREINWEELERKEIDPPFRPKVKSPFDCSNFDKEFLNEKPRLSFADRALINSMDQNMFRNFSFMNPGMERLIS
In the case of `O=C1NC(=O)C(c2nc(N3CCN4CCC[C@@H]4C3)nc3cccc(F)c23)=C1c1c[nH]c2ccsc12` [F.3.2, (R)-3-(5-Fluoro-2-(hexahydropyrrolo[1,2-a]pyrazin-2(1H)-yl)quinazolin-4-yl)-4-(4H-thieno[3,2-b]pyrrol-6-yl)-1H-pyrrole-2,5-dione], the negative-log IC50 (pIC50) (as a rule, −log10 of the IC50, conventionally taken in molar units) was over 7.00.

On to `CN1CCN(c2nc(C3=C(c4c[nH]c5sccc45)C(=O)NC3=O)c3sccc3n2)CC1` [F.4.9], for which the negative logarithm of the IC50 (pIC50) was over 7.00.

In turn, `CCC1(N)CCN(c2nc(C3=C(c4c[nH]c5sccc45)C(=O)NC3=O)c3ccccc3n2)CC1` [E.1.43] had a negative-log IC50 (pIC50) of over 7.00.

`CN1CC(Cn2nc(C3=C(c4c[nH]c5sccc45)C(=O)NC3=O)c3ccccc32)C1` [F.4.22] gave a pIC50 of over 7.00.

`O=C1NC(=O)C(c2c[nH]c3ccsc23)=C1c1nc(N2CCC(N3CCCCC3)CC2)nc2ccccc12` [E.2.2] showed a negative-log IC50 (pIC50) of over 7.00.

`O=C1NC(=O)C(c2c[nH]c3sccc23)=C1c1nc(N2CCC(n3ccnc3)C2)nc2ccccc12` (centres unmarked) [E.1.23] had a pIC50 of 6.00 to 6.30.

Compound `O=C1NC(=O)C(c2c[nH]c3sccc23)=C1c1nc(N2CCN3CCC[C@H]3C2)nc2sccc12` [E.3.1] had a pIC50 of over 7.00.

In turn, `O=C1NC(=O)C(c2c[nH]c3sccc23)=C1c1nc(N2CCn3ncnc3C2)nc2ccccc12` [E.1.38] showed a pIC50 of 6.30 to 7.00.

Take `CN1CCN(c2nc(C3=C(c4c[nH]c5sccc45)C(=O)NC3=O)c3cccn3n2)CC1` [F.4.36]: the pIC50 is over 7.00.

Take `CN1CCN(c2nc3c(c(C4=C(c5c[nH]c6sccc56)C(=O)NC4=O)n2)CCC3)CC1` [F.4.10]: the pIC50 was 6.30 to 7.00.

Compound `O=C1NC(=O)C(c2c[nH]c3ccsc23)=C1c1nc(N2CCNCC2)nc2ccccc12` [G.1.1, 3-(2-(piperazin-1-yl)quinazolin-4-yl)-4-(4H-thieno[3,2-b]pyrrol-6-yl)-1H-pyrrole-2,5-dione] showed a negative-log IC50 (pIC50) of over 7.00.

`CN1CCC(Cn2nc(C3=C(c4c[nH]c5sccc45)C(=O)NC3=O)c3ccccc32)CC1` [F.4.6] showed a pIC50 of over 7.00.

Consider `Cc1nnc2n1CCN(c1nc(C3=C(c4c[nH]c5sccc45)C(=O)NC3=O)c3ccccc3n1)C2` [E.1.40], for which the pIC50 is over 7.00.

`O=C1NC(=O)C(c2c[nH]c3sccc23)=C1c1nc(N2CC[C@@H](N3CCCC3)[C@H](F)C2)nc2ccccc12` [E.1.32] showed a negative-log IC50 (pIC50) of over 7.00.

In turn, `CN1CCN(c2nc(C3=C(c4c[nH]c5sccc45)C(=O)NC3=O)c3cc(F)ccc3n2)CC1` [F.4.15] gave a negative-log IC50 (pIC50) of over 7.00.

In the case of `O=C1NC(=O)C(c2c[nH]c3sccc23)=C1c1nc(N2CCC(CN3CCOCC3)CC2)nc2ccccc12` [E.1.16], the negative logarithm of the IC50 (pIC50) is 6.30 to 7.00.

As to `O=C1NC(=O)C(c2c[nH]c3ccsc23)=C1c1nc(N2CCn3cnnc3C2)nc2ccccc12` [E.2.8], the pIC50 is 6.30 to 7.00.

With `O=C1NC(=O)C(c2nc(N3CCN4CCC[C@@H]4C3)nc3cccc(F)c23)=C1c1c[nH]c2sccc12` [F.4.3, (R)-3-(5-Fluoro-2-(hexahydropyrrolo[1,2-a]pyrazin-2(1H)-yl)quinazolin-4-yl)-4-(6H-thieno[2,3-b]pyrrol-4-yl)-1H-pyrrole-2,5-dione], the negative-log IC50 (pIC50) was over 7.00.

`Cc1cccc2nc(N3CCN(C)CC3)nc(C3=C(c4c[nH]c5sccc45)C(=O)NC3=O)c12` [F.4.30] gave a pIC50 of over 7.00.

The compound `CN1CCN(c2nc(C3=C(c4c[nH]c5sccc45)C(=O)NC3=O)c3c(O)cccc3n2)CC1` [F.4.12] had a pIC50 of 6.00 to 6.30.

Compound `O=C1NC(=O)C(c2c3ccccc3nn2CC2CCNCC2)=C1c1c[nH]c2sccc12` [G.1.16] gave a pIC50 of 6.30 to 7.00.

Turning to `CN(C)CCCn1nc(C2=C(c3c[nH]c4sccc34)C(=O)NC2=O)c2ccccc21` [F.4.29], the pIC50 was 6.30 to 7.00.

`O=C1NC(=O)C(c2c[nH]c3ccsc23)=C1c1nc(N2CCC(N3CCOCC3)CC2)nc2ccccc12` [E.2.5] showed a negative-log IC50 (pIC50) of 6.30 to 7.00.

On to `CN(C)CC1CCn2c(c(C3=C(c4c[nH]c5sccc45)C(=O)NC3=O)c3ccccc32)C1` (centres unmarked) [Example #2, 3-(8-((Dimethylamino)methyl)-6,7,8,9-tetrahydropyrido[1,2-a]indol-10-yl)-4-(6H-thieno[2,3-b]pyrrol-4-yl)-1H-pyrrole-2,5-dione], for which the negative-log IC50 (pIC50) is over 7.00.

On to `CN1CCN(c2nc3c(c(C4=C(c5c[nH]c6sccc56)C(=O)NC4=O)n2)CCCC3)CC1` [F.4.16], for which the negative logarithm of the IC50 (pIC50) is 6.30 to 7.00.

As for `CN(C)Cc1ncc2n1CCN(c1nc(C3=C(c4c[nH]c5sccc45)C(=O)NC3=O)c3ccccc3n1)C2` [E.1.51], the pIC50 is over 7.00.

In turn, `O=C1NC(=O)C(c2c[nH]c3sccc23)=C1c1nc(N2CCC(O)(CN3CCCC3)CC2)nc2ccccc12` [E.1.25] had a negative logarithm of the IC50 (pIC50) of 6.30 to 7.00.

On to `O=C1NC(=O)C(c2c[nH]c3ccsc23)=C1c1nc(N2CCN3CCC[C@H]3C2)nc2ccccc12` [E.2.4], for which the pIC50 is over 7.00.

Compound `O=C1NC(=O)C(c2c[nH]c3sccc23)=C1c1nc(N2CC[C@H](N3CCCC3)[C@H](F)C2)nc2ccccc12` [E.1.29] showed a pIC50 of 6.30 to 7.00.

Consider `Cc1ncc2n1CCN(c1nc(C3=C(c4c[nH]c5sccc45)C(=O)NC3=O)c3ccccc3n1)C2` [E.1.26], for which the pIC50 is over 7.00.

`CN1CCN(c2nc(C3=C(c4c[nH]c5sccc45)C(=O)NC3=O)c3ccccc3n2)CC1CO` (centres unmarked) [E.1.45] gave a pIC50 of over 7.00.

The compound `O=C1NC(=O)C(c2c[nH]c3sccc23)=C1c1nc(N2CCC3(CCN3)CC2)nc2ccccc12` [E.1.35] gave a pIC50 of over 7.00.

`Cc1cc2c(C3=C(c4nc(N5CCN(C)CC5)nc5ccccc45)C(=O)NC3=O)c[nH]c2s1` [F.1.3] showed a pIC50 of 6.30 to 7.00.

Turning to `CC(C)N1CCN(c2nc(C3=C(c4c[nH]c5sccc45)C(=O)NC3=O)c3ccccc3n2)CC1` [E.1.21], the negative-log IC50 (pIC50) was over 7.00.

`COCCN1CCC(Cn2nc(C3=C(c4c[nH]c5sccc45)C(=O)NC3=O)c3ccccc32)C1` (centres unmarked) [F.4.26] showed a pIC50 of 6.30 to 7.00.

`NC1(CCO)CCN(c2nc(C3=C(c4c[nH]c5sccc45)C(=O)NC3=O)c3ccccc3n2)CC1` [E.1.34] gave a negative logarithm of the IC50 (pIC50) of over 7.00.

Compound `NCC1CCN(c2nc(C3=C(c4c[nH]c5ccsc45)C(=O)NC3=O)c3ccccc3n2)CC1` [G.1.4] showed a pIC50 of 6.30 to 7.00.

Compound `O=C1NC(=O)C(c2c[nH]c3ccsc23)=C1c1nc(N2CCC(N3CCCC3)CC2)nc2ccccc12` [E.2.6] showed a negative-log IC50 (pIC50) of over 7.00.

In turn, `Cc1ccc2nc(N3CCN(C)CC3)nc(C3=C(c4c[nH]c5sccc45)C(=O)NC3=O)c2c1` [F.4.31] gave a negative-log IC50 (pIC50) of over 7.00.

Compound `CN(C)C1CCN(c2nc(C3=C(c4c[nH]c5ccsc45)C(=O)NC3=O)c3ccccc3n2)CC1` [E.2.3] showed a pIC50 of over 7.00.

`O=C1NC(=O)C(c2nn(CC3CCN(CCF)CC3)c3ccccc23)=C1c1c[nH]c2sccc12` [F.4.20] had a negative logarithm of the IC50 (pIC50) of 6.30 to 7.00.

The compound `CN1CCC(Cn2cc(C3=C(c4c[nH]c5sccc45)C(=O)NC3=O)c3ccccc32)CC1` [F.4.17] had a pIC50 of over 7.00.

For `CN(C)CC1CCN(c2nc(C3=C(c4c[nH]c5sccc45)C(=O)NC3=O)c3ccccc3n2)CC1` [E.1.5], the pIC50 is over 7.00.

Regarding `O=C1NC(=O)C(c2c[nH]c3ccsc23)=C1c1nc(NC2CCNCC2)nc2ccccc12` [G.1.8], the pIC50 is 6.30 to 7.00.

`CNCC1CCN(c2nc(C3=C(c4c[nH]c5sccc45)C(=O)NC3=O)c3ccccc3n2)CC1` [G.1.15] gave a pIC50 of 6.30 to 7.00.

`Cc1nccn1CC1CCN(c2nc(C3=C(c4c[nH]c5sccc45)C(=O)NC3=O)c3ccccc3n2)CC1` [E.1.3]: the negative logarithm of the IC50 (pIC50) was 6.30 to 7.00.

In the case of `CN1CCC(Cc2nc(C3=C(c4c[nH]c5sccc45)C(=O)NC3=O)c3ccccn23)CC1` [F.4.33], the negative-log IC50 (pIC50) was 6.00 to 6.30.

`CN1CCN(c2nc(C3=C(c4c[nH]c5sccc45)C(=O)NC3=O)c3ccsc3n2)CC1` [F.4.2, 3-(2-(4-Methylpiperazin-1-yl)thieno[2,3-d]pyrimidin-4-yl)-4-(6H-thieno[2,3-b]pyrrol-4-yl)-1H-pyrrole-2,5-dione] showed a pIC50 of over 7.00.

For the compound `CN1CCN(c2nc(C3=C(c4c[nH]c5sccc45)C(=O)NC3=O)c3cc(Cl)ccc3n2)CC1` [F.4.13], the pIC50 was over 7.00.

`CN1CCN(c2nc(C3=C(c4c[nH]c5ccsc45)C(=O)NC3=O)c3ccc(F)cc3n2)CC1` [F.3.5] gave a negative-log IC50 (pIC50) of over 7.00.

In turn, `CNCC1CCN(c2nc(C3=C(c4c[nH]c5sccc45)C(=O)NC3=O)c3ccccc3n2)C1` (centres unmarked) [G.1.14] had a pIC50 of 6.00 to 6.30.

`O=C1NC(=O)C(c2c[nH]c3sccc23)=C1c1nc(N2CCN(C3CC3)CC2)nc2ccccc12` [E.1.18] had a negative logarithm of the IC50 (pIC50) of over 7.00.

The compound `CNC1CCN(c2nc(C3=C(c4c[nH]c5sccc45)C(=O)NC3=O)c3ccccc3n2)C1` (centres unmarked) [G.1.7] had a pIC50 of 6.30 to 7.00.

Compound `O=C1NC(=O)C(c2c[nH]c3sccc23)=C1c1nc(N2CC[C@@H]3NCC[C@@H]3C2)nc2ccccc12` (relative stereo) [G.1.19] had a pIC50 of over 7.00.

Take `O=C1NC(=O)C(c2c[nH]c3ccsc23)=C1c1nc(N2CCN3CCCC3C2)nc2ccccc12` (centres unmarked) [E.2.10]: the negative-log IC50 (pIC50) was over 7.00.

On to `NC(=O)C1CCN(c2nc(C3=C(c4c[nH]c5sccc45)C(=O)NC3=O)c3ccccc3n2)CC1` [E.1.14], for which the pIC50 is 6.00 to 6.30.

Turning to `O=C1NC(=O)C(c2c[nH]c3sccc23)=C1c1nc(N2CCN3CCC[C@H]3C2)nc2ccccc12` [E.1.44], the pIC50 was over 7.00.

For the compound `CN1CCN(c2nc(C3=C(c4c[nH]c5ccsc45)C(=O)NC3=O)c3ccsc3n2)CC1` [F.3.4], the negative logarithm of the IC50 (pIC50) is over 7.00.

Regarding `CN1CCCC(Cn2nc(C3=C(c4c[nH]c5sccc45)C(=O)NC3=O)c3ccccc32)C1` (centres unmarked) [F.4.28], the negative-log IC50 (pIC50) is 6.30 to 7.00.

Turning to `CN1CCN(c2nc(C3=C(c4c[nH]c5sccc45)C(=O)NC3=O)c3c(F)cccc3n2)CC1` [F.4.1, 3-(5-Fluoro-2-(4-methylpiperazin-1-yl)quinazolin-4-yl)-4-(6H-thieno[2,3-b]pyrrol-4-yl)-1H-pyrrole-2,5-dione], the pIC50 was over 7.00.

In the case of `CN(C)[C@H]1CC[C@@H](n2nc(C3=C(c4c[nH]c5sccc45)C(=O)NC3=O)c3ccccc32)CC1` [F.4.5], the negative logarithm of the IC50 (pIC50) is over 7.00.

`O=C1NC(=O)C(c2c[nH]c3sccc23)=C1c1nc(N2CCN(CCO)CC2)nc2ccccc12` [E.1.19] gave a pIC50 of over 7.00.
